Common to all, as to assay: inhibition of tumour cell growth, NCI panel, 48 h
Test [1] deals with SK-OV-3.
The test system of test [2] is SF-295.
The test system of test [3] is RPMI-8226.
Test [4] deals with UO-31.
For test [5], the system named is HCT-116.
Test [6] concerns K562.
For test [7], the system named is OVCAR-3.
Test [8] relates to HCC 2998.
For test [9], the system named is 786-0.
Test [10] deals with HL-60.
In test [11] the test system is A498.
Test [12] deals with UACC-62.
The subject of test [13] is MOLT-4.
In test [14] the test system is RXF 393.
Test [15] has as its system CCRF-CEM.
Test [16] has as its system NCI-H226.
The subject of test [17] is SW-620.
Test [18] deals with SNB-19.
Test [19] has as its system OVCAR-4.
Test [20] has as its system MDA-N.

The values below come from ChEMBL document CHEMBL1201862, “PubChem BioAssay data set” (2004).

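48-hour exposure; five concentrations; linearly interpolated endpoints. GI50 = concentration required for 50% inhibition of growth.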 Active and inactive are the calls of the source. Cut-off read from the data, not from the text of the source: active = GI50 up to about 1.1 µM and inactive = higher.

Turning to `C=CC1(C)CC(=O)C2(O)C(C)(O1)C(OC(C)=O)C(O)C1C(C)(C)CCC(O)C12C` (stereo not given), the GI50 was 29.7 µM (inactive) in [1]; > 142 µM (inactive) in [2]; 27.1 µM (inactive) in test [3]; 30.5 µM (inactive) in test [4]; 128 µM (inactive) in test [5]; > 150 µM (inactive) in test [6]. The GI50 in test [7] was > 150 µM (inactive); in [8], > 146 µM (inactive); in test [9], > 100 µM (inactive); in test [10], 42.1 µM (inactive); in test [11], > 150 µM (inactive); in [12], 69.7 µM (inactive). For the same molecule, the GI50 in test [13] is 28.6 µM (inactive); in test [14], 7.62 µM (inactive); in test [15], 22.2 µM (inactive); in test [16] it was 3.41 µM (inactive); in [17] it was > 150 µM (inactive); in [18], > 150 µM (inactive). Besides, the GI50 in test [19] was > 54.8 µM (inactive).
`CCOC(=O)C1Cc2ccc(C)cc2C1=O` (stereo not given): the GI50 in test [1] was > 100 µM (inactive); in [2], > 100 µM (inactive); in test [3], 41.1 µM (inactive); in [4] it was 48.6 µM (inactive); in test [5], > 100 µM (inactive); in test [6], 31.4 µM (inactive). For the same molecule, the GI50 in test [7] was 46.9 µM (inactive); in [8], > 100 µM (inactive); in test [9] it was > 100 µM (inactive); in test [10] it was 23.6 µM (inactive); in test [12], 49.1 µM (inactive); in test [13], 39.4 µM (inactive). The GI50 in test [15] was 34 µM (inactive); in test [16], > 100 µM (inactive); in test [20] it was > 100 µM (inactive); in [17], 88.1 µM (inactive); in test [19], 81.7 µM (inactive).
Consider `Cc1ccccc1-c1c(N)nc(N)nc1C(=O)Nc1nccs1`, for which the GI50 in test [1], in test [2], in [3], in [4], in [5] and in [6] was > 100 µM (inactive) in each case. The GI50 in test [7], in [8], in test [9], in test [10], in test [11] and in [12] was > 100 µM (inactive) each time. Moreover, the GI50 in [13], in test [14], in test [15], in test [16], in test [17] and in [18] was > 100 µM (inactive) throughout. For the same molecule, in [19], the GI50 is > 100 µM (inactive).
`CC[C@@]12N=C(N(C)C)C[C@]1(O)ON=C2C`: the GI50 in [1], in test [2], in test [3], in [4], in test [5] and in test [6] was > 100 µM (inactive) in each case. For the same molecule, the GI50 in test [7], in test [8], in [9], in test [10], in test [11] and in test [13] was > 100 µM (inactive) throughout. Besides, the GI50 in test [14], in [15], in [16], in [17], in test [18] and in test [19] was > 100 µM (inactive) each time.
Regarding `O=C(c1ccccc1)C1CCCCN1C(=O)c1ccccc1` (stereo not given), the GI50 in test [1], in test [3], in [4], in [5], in test [6] and in test [7] was > 100 µM (inactive) throughout. The GI50 is > 100 µM (inactive) in test [8]; > 100 µM (inactive) in test [9]; > 100 µM (inactive) in test [10]; > 100 µM (inactive) in test [11]; 25.7 µM (inactive) in test [12]; > 100 µM (inactive) in test [13]. Further, the GI50 in [14], in [15], in test [16], in [17], in test [18] and in test [19] was > 100 µM (inactive) throughout.
Turning to `O=C(O)c1ccc(C2=Cc3cc(Cl)ccc3OC2)cc1`, the GI50 in test [1] is > 100 µM (inactive); in [2], > 100 µM (inactive); in test [3], > 100 µM (inactive); in test [4], 90.4 µM (inactive); in [5], > 100 µM (inactive); in [6], > 100 µM (inactive). Besides, the GI50 in test [7], in test [8], in [9], in [10], in test [11] and in [12] was > 100 µM (inactive) each time. Also, the GI50 in [13], in test [14], in test [15], in test [16], in test [17] and in test [18] was > 100 µM (inactive) each time.
Turning to `Cn1c(O)c(C(=O)Nc2ccc([N+](=O)[O-])cc2)c(=O)n(C)c1=S`, the GI50 is 3.64 µM (inactive) in [1]; 1.31 µM (inactive) in test [2]; 3.15 µM (inactive) in [3]; 1.54 µM (inactive) in test [4]; 2.26 µM (inactive) in [5]; 3.53 µM (inactive) in test [6]. In addition, the GI50 in test [7] was 2.37 µM (inactive); in [8], 2.47 µM (inactive); in [9], 2.67 µM (inactive); in test [10] it was 2.25 µM (inactive); in [11] it was 0.499 µM (active); in test [12], 1.23 µM (inactive). Also, the GI50 in [13] was 3.08 µM (inactive); in [14] it was 1.12 µM (active); in test [15] it was 2.38 µM (inactive); in test [16], 4.33 µM (inactive); in test [17], 3.49 µM (inactive); in [18] it was 2.16 µM (inactive). Besides, the GI50 in test [19] was 2.71 µM (inactive).
For the molecule `CC1=C(C(=O)Nc2ccccc2)C(c2cc(Cl)cc(Cl)c2)C(C(=O)Nc2ccccc2)=C(C)N1`, the GI50 in [1] is 36.8 µM (inactive); in test [2], 10.9 µM (inactive); in [3], 3.84 µM (inactive); in test [4], 13.9 µM (inactive); in [5], 9.53 µM (inactive); in [6] it was 1.35 µM (inactive). Further, the GI50 in test [7] was 8.22 µM (inactive); in test [8] it was 11.6 µM (inactive); in test [9], 9.04 µM (inactive); in test [10], 1.78 µM (inactive); in test [11], 22.6 µM (inactive); in [12], 3.94 µM (inactive). Moreover, the GI50 was 3.54 µM (inactive) in test [13]; 12.9 µM (inactive) in test [14]; 3.02 µM (inactive) in test [15]; 15.1 µM (inactive) in test [16]; 8.28 µM (inactive) in test [17]; 14.2 µM (inactive) in test [18]. The GI50 in test [19] was 2.43 µM (inactive).
`N#CC1C(C#N)C2(c3ccccc3)C(c3ccccc3)=NN(c3ccccc3)CC12` (stereo not given): the GI50 in [2], in test [3], in test [4], in test [5], in test [6] and in test [7] was > 100 µM (inactive) in each case. In addition, the GI50 in test [8] was > 100 µM (inactive); in test [9] it was > 100 µM (inactive); in test [10], > 100 µM (inactive); in test [11] it was > 100 µM (inactive); in test [12], 94.8 µM (inactive); in test [13], 16.8 µM (inactive). For the same molecule, the GI50 in test [14] is > 100 µM (inactive); in test [15] it was > 100 µM (inactive); in test [16], > 100 µM (inactive); in test [17] it was > 100 µM (inactive); in test [18] it was > 100 µM (inactive); in [19] it was 95.3 µM (inactive).
Consider `CN1C(=O)CC2CCC(=O)N2c2cccnc21` (stereo not given), for which the GI50 in test [2], in [3], in test [4], in test [5], in test [6] and in [7] was > 100 µM (inactive) throughout. The GI50 was > 100 µM (inactive) in test [8]; > 100 µM (inactive) in test [9]; > 100 µM (inactive) in [10]; 75.5 µM (inactive) in [12]; > 100 µM (inactive) in test [15]; > 100 µM (inactive) in [16]. The GI50 in test [20], in [17], in test [18] and in test [19] was > 100 µM (inactive) throughout.
Regarding `COC(=O)C(C(=O)C(=O)Nc1cccc(C)c1)C1=NC(N)SS1` (stereo not given), the GI50 in [1], in test [2], in test [3], in test [4], in [5] and in [6] was > 100 µM (inactive) throughout. Also, the GI50 in test [7], in test [8], in test [9], in test [10], in test [11] and in test [12] was > 100 µM (inactive) throughout. Also, the GI50 in [13], in test [14], in [15], in test [16], in [17] and in test [18] was > 100 µM (inactive) in each case. The GI50 in test [19] is > 100 µM (inactive).
